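Grown in 96-well plates, cells were treated for 48 hours with each compound at five concentrations. Insufficient inhibition: endpoint recorded as highest concentration tested. GI50 = concentration required for 50% inhibition of growth.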 Activity calls are given as the source filed them. No stated cut-off is given here; in the data, active = GI50 up to about 1.1 µM and inactive = higher.
How the values were obtained:
Assay in all cases: NCI tumour cell line growth inhibition, 48 h
[1] = system: ACHN
[2] = system: EKVX
[3] = system: SF-295
[4] = system: MDA-MB-435
[5] = system: NCI-H460
[6] = system: HOP-92
[7] = system: UO-31
[8] = system: SF-268
[9] = system: OVCAR-5
[10] = system: T47D
[11] = system: SK-MEL-28
[12] = system: CCRF-CEM
[13] = system: HT-29
[14] = system: SK-MEL-5
[15] = system: 786-0
[16] = system: SNB-75
[17] = system: OVCAR-3
[18] = system: HCT-116
[19] = system: SR
[20] = system: MCF7
[21] = system: SN12C
[22] = system: SF-539
[23] = system: NCI-H522
[24] = system: OVCAR-4
[25] = system: NCI/ADR-RES
[26] = system: SK-OV-3
[27] = system: Hs-578T
[28] = system: HL-60
[29] = system: RXF 393
[30] = system: BT-549
[31] = system: KM12
[32] = system: CAKI-1
[33] = system: LOX IMVI
[34] = system: UACC-62
[35] = system: TK-10
[36] = system: COLO 205
[37] = system: HOP-62
[38] = system: U-251
[39] = system: IGROV-1
[40] = system: A549
[41] = system: UACC-257
[42] = system: NCI-H23
[43] = system: M14
[44] = system: DU-145
[45] = system: HCT-15
[46] = system: SW-620
[47] = system: MDA-N
[48] = system: SNB-19
[49] = system: K562
[50] = system: OVCAR-8
[51] = system: PC-3
[52] = system: HCC 2998
[53] = system: MOLT-4
[54] = system: SK-MEL-2
[55] = system: Malme-3M
[56] = system: RPMI-8226
[57] = system: MDA-MB-231

## Fc1cccc(F)c1C1SCc2nc3ccc(Cl)cc3n21 (configuration not stated)
[1]
  GI50: > 100 µM (inactive)
[2]
  GI50: > 100 µM (inactive)
[3]
  GI50: > 100 µM (inactive)
[4]
  GI50: > 100 µM (inactive)
[5]
  GI50: > 100 µM (inactive)
[6]
  GI50: > 100 µM (inactive)
[7]
  GI50: > 100 µM (inactive)
[8]
  GI50: > 100 µM (inactive)
[9]
  GI50: > 100 µM (inactive)
[10]
  GI50: 95.3 µM (inactive)
[11]
  GI50: > 100 µM (inactive)
[12]
  GI50: > 100 µM (inactive)
[13]
  GI50: > 85.7 µM (inactive)
[14]
  GI50: 85.3 µM (inactive)
[15]
  GI50: > 100 µM (inactive)
[16]
  GI50: 41.1 µM (inactive)
[17]
  GI50: > 100 µM (inactive)
[18]
  GI50: > 100 µM (inactive)
[19]
  GI50: 48.4 µM (inactive)
[20]
  GI50: > 83 µM (inactive)
[21]
  GI50: > 100 µM (inactive)
[22]
  GI50: > 100 µM (inactive)
[23]
  GI50: > 100 µM (inactive)
[24]
  GI50: 85.3 µM (inactive)
[25]
  GI50: > 100 µM (inactive)
[26]
  GI50: > 100 µM (inactive)
[27]
  GI50: > 100 µM (inactive)
[28]
  GI50: 40.5 µM (inactive)
[29]
  GI50: > 100 µM (inactive)
[30]
  GI50: > 100 µM (inactive)
[31]
  GI50: 63 µM (inactive)
[32]
  GI50: > 100 µM (inactive)
[33]
  GI50: > 100 µM (inactive)
[34]
  GI50: > 100 µM (inactive)
[35]
  GI50: > 100 µM (inactive)
[36]
  GI50: > 100 µM (inactive)
[37]
  GI50: > 100 µM (inactive)
[38]
  GI50: > 100 µM (inactive)
[39]
  GI50: > 100 µM (inactive)
[40]
  GI50: > 100 µM (inactive)
[41]
  GI50: > 100 µM (inactive)
[42]
  GI50: > 100 µM (inactive)
[43]
  GI50: > 100 µM (inactive)
[44]
  GI50: > 100 µM (inactive)
[45]
  GI50: > 100 µM
[46]
  GI50: > 100 µM (inactive)
[47]
  GI50: > 100 µM (inactive)
[48]
  GI50: > 100 µM (inactive)
[49]
  GI50: 51.1 µM (inactive)
[50]
  GI50: > 100 µM (inactive)
[51]
  GI50: > 82.8 µM (inactive)
[52]
  GI50: > 100 µM (inactive)
[53]
  GI50: > 100 µM (inactive)
[54]
  GI50: > 100 µM (inactive)
[55]
  GI50: > 100 µM (inactive)
[56]
  GI50: 82.4 µM (inactive)
[57]
  GI50: > 100 µM (inactive)

Source: ChEMBL document CHEMBL1201862, “PubChem BioAssay data set” (2004)
